Test results reported in patent US6068851A, “Formulation for use in the prevention of pathogen induced diseases including HIV and HSV” (Infectio Recherche, Inc., priority 1999, dated 2000).

Legend:
[1] = Drug release from poloxamer gel (diffusion cell, dialysis membrane, radiolabelled drugs); format: physicochemical; details: body temperature vs 4° C.; data not shown
From the text: The poloxamer gel could act as a sustained-drug release system which prolong the local microbicidal activity of the incorporated active agents. We have studied the release of antiviral agents (AZT, ddC, ddi, foscarnet, acyclovir) from our poloxamer gel formulations using radiolabelled drugs and a diffusion cell made of two compartments separated by a dialysis membrane. […] This is explained by the creation of large openings in the intermicellar network of the gel at high temperature which in turn increase the release of the incorporated active agents.

[2] = tested on: human cervical cells; assay: Viability of human cervical cells with nonoxynol-9, free or in poloxamer gel; format: cell-based
Method: FIG. 2 represents the viability of human cervical cells following incubation with different concentrations of nonoxynol-9 either as free drug or incorporated into the poloxamer gel (19.5% w/w).

[3] = tested on: vaginal and cervical mucosae of rabbits; assay: In vivo tolerance/toxicity, vaginal and cervical mucosae, daily intravaginal application; parameters: species or system New Zealand rabbits; details: once daily intravaginal for two weeks; nonoxynol-9 dose 125 mg
Method: (§1) Studies have been performed to evaluate the tolerance and toxicity of the poloxamer 407 gel (19.5% w/w) when applied locally once daily for two weeks to the vaginal and cervical mucosae of New Zealand rabbits. The gel was applied in its fluid state to allow a good penetration into the irregularly shaped surfaces of the mucosae. Biopsies of the vaginal and cervical mucosae were performed on days 0, 4, 7 and 14 for histological examinations. […] Such toxicity induced by nonoxynol-9 might favour the entry of pathogens.

[4] = tested on: cervical mucosa of rabbits; assay: Histopathology of cervix after daily intravaginal application; format: in vivo, New Zealand rabbits; details: once daily intravaginal for two weeks
Method: as §1

[5] = background statement; cited from earlier work

Molecule | release of drugs from the poloxamer gel [1] | further results
Cc1cn([C@H]2C[C@H](N=[N+]=[N-])[C@@H](CO)O2)c(=O)[nH]c1=O [AZT] | increased at body temperature when compared to 4 °C | –
Nc1nc2c(ncn2COCCO)c(=O)[nH]1 [acyclovir] | increased at body temperature when compared to 4 °C | –
Nc1ccn([C@H]2CC[C@@H](CO)O2)c(=O)n1 [ddC, 2'-3'-dideoxycytidine] | increased at body temperature when compared to 4 °C | –
O=c1[nH]cnc2c1ncn2[C@H]1CC[C@@H](CO)O1 [ddi, 2'-3'-dideoxyinosine] | increased at body temperature when compared to 4 °C | –
O=C(O)P(=O)(O)O [foscarnet] | increased at body temperature when compared to 4 °C | –
nonoxynol-9 | – | toxicity to human cervical cells (viability) ([2]; different concentrations of nonoxynol-9, free or in gel): highly toxic to the human cervical cells in a dose-dependent manner; concentration at which toxicity starts ([2]; free nonoxynol-9, human cervical cells): 150 µg/mL; toxicity to vaginal and cervical mucosae [3]: very toxic as evidenced by the presence of epithelial disruption, irritation, necrosis and bleeding; histopathology of cervical mucosa [4]: large accumulation of eosinophiles in the sub-mucosa and induce a major loss of integrity of the epithelial cells; local inflammation and ulcerations [5]: induce local inflammation and ulcerations
